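96-well plates; 48 h exposure; 5 concentrations. Endpoints by linear interpolation between flanking doses. Not reached: highest tested concentration assigned. The concentration for full growth arrest is given as TGI.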
Columns and labels:
Assay in all cases: NCI anticancer screen, dose series, 48 h
PC-3 prostate = system: PC-3 prostate
IGROV1 ovarian = system: IGROV1 ovarian
NCI-H522 lung = system: NCI-H522 lung
MDA-MB-435 = system: MDA-MB-435
HCT-116 colon = system: HCT-116 colon
NCI/ADR-RES ovarian = system: NCI/ADR-RES ovarian
MALME-3M melanoma = system: MALME-3M melanoma
NCI-H23 lung = system: NCI-H23 lung

| Compound | TGI (PC-3 prostate) | TGI (IGROV1 ovarian) | TGI (NCI-H522 lung) | TGI (MDA-MB-435) | TGI (HCT-116 colon) | TGI (NCI/ADR-RES ovarian) | TGI (MALME-3M melanoma) | TGI (NCI-H23 lung) |
| --- | --- | --- | --- | --- | --- | --- | --- | --- |
| COC(=O)C1CCC(=O)N1C(c1ccc2c(c1)OCO2)c1ccc2c(c1)OCO2 (stereo unspecified) | > 100 µM | > 100 µM | > 100 µM | > 100 µM | > 100 µM | > 100 µM | > 100 µM | > 100 µM |
| CCCCCCCC/C=C/CCCCCCCC1CC(O)C(=O)O1 (stereo unspecified) | > 100 µM | > 100 µM |  | > 100 µM | > 100 µM | > 100 µM | > 100 µM | > 100 µM |
| C[C@@H]1OC(=O)/C(=C\N(C)C)[C@H]2CC(=O)N(CCc3cn(S(=O)(=O)C(F)(F)F)c4ccccc34)C[C@H]12 | > 100 µM | > 100 µM | > 100 µM | > 100 µM | > 100 µM | > 100 µM | > 100 µM | > 100 µM |
| Cn1cnc([N+](=O)[O-])c1Sc1nc(N)nc2c1ncn2Cc1ccccc1 | 36.3 µM | > 100 µM | 24.1 µM | 72.4 µM | 42.1 µM | > 100 µM | 30.8 µM | 36.9 µM |
| O=C1NN(c2ccccc2)C(=O)C2C3c4ccccc4C(c4ccccc43)C12 (stereo unspecified) | > 100 µM | > 100 µM | > 100 µM | > 100 µM | > 100 µM | > 100 µM | > 100 µM | > 100 µM |
| CC(=O)OCc1cn(S(=O)(=O)c2ccc(C)cc2)cn1 | > 100 µM | > 100 µM | > 100 µM | > 100 µM | > 100 µM | > 100 µM | > 100 µM | > 100 µM |
| CC(C)(C)NC1C2CCC(C)(C1O)C2(C)C (stereo unspecified) | > 100 µM | > 100 µM |  | > 100 µM | > 100 µM | > 100 µM | > 100 µM | > 100 µM |
| O=C(/C(=C/c1cccs1)c1ccccc1)c1ccccc1 | > 100 µM | > 100 µM | > 100 µM | > 100 µM | > 100 µM | > 100 µM |  | > 100 µM |
| O=C(N/C(=C\c1ccccc1)C1Nc2ccccc2C(=O)O1)c1ccccc1 (stereo unspecified) | > 100 µM | > 100 µM | 33.5 µM | > 100 µM | 36.8 µM | 70.9 µM | 45.6 µM | > 100 µM |
| Cc1cccc(NC(=S)N/N=C(/c2ccccc2)c2ccccn2)c1 | 18.3 µM | 16.7 µM | 14.6 µM | 17.6 µM | 13 µM | 6.63 µM | 12.6 µM | 13.9 µM |
| CC(=O)Nc1ccc(-c2nc3ccccc3s2)cc1O | > 100 µM | 57.7 µM | 9.85 µM | > 100 µM | > 100 µM | 64.4 µM |  | > 100 µM |
| CCOP(=O)(OCC)/C(C#N)=C/c1c(C)[nH]c2ccccc12 | > 100 µM | > 100 µM | > 100 µM | > 100 µM | > 100 µM | > 100 µM | > 100 µM | > 100 µM |
| [N-]=[N+]=NC1=C(c2ccccc2)C(=O)c2cccc3cccc1c23 | > 100 µM | 95.2 µM |  | > 100 µM | > 100 µM | > 100 µM | > 100 µM | > 100 µM |
| NC(CCCCNC(=O)C(Cc1ccccc1)NC(=O)OCc1ccccc1)C(=O)NC(CCCCNC(=O)C(Cc1ccccc1)NC(=O)OCc1ccccc1)C(=O)NC(CCCCNC(=O)C(Cc1ccccc1)NC(=O)OCc1ccccc1)C(=O)NC(CCCCNC(=O)C(Cc1ccccc1)NC(=O)OCc1ccccc1)C(=O)NC(CCCCNC(=O)C(Cc1ccccc1)NC(=O)OCc1ccccc1)C(=O)NC(CCCCNC(=O)C(Cc1ccccc1)NC(=O)OCc1ccccc1)C(=O)O (stereo unspecified) | > 100 µM | > 100 µM | > 100 µM | > 100 µM | > 100 µM |  | > 100 µM | > 100 µM |
| COc1c(O)cc(C(=O)O[C@@H]2Cc3c(O)cc(O)cc3O[C@@H]2c2cc(O)c(O)c(O)c2)cc1O | > 100 µM | > 100 µM | 54.6 µM | 33.3 µM | 35.4 µM | > 100 µM | > 100 µM | 98.5 µM |
| CN(C)/C=N/S(=O)(=O)c1nn2c(C=O)c(-c3ccc(-c4ccc([N+](=O)[O-])cc4)o3)nc2s1 | 14.3 µM | 4.42 µM |  | 7.41 µM | 3.68 µM | > 96.6 µM | 4.15 µM | 16.2 µM |
| N/N=C(\C(=O)Nc1ccc([N+](=O)[O-])cc1)C(C1=Nc2cc([N+](=O)[O-])ccc2NC1)[N+](=O)[O-] (stereo unspecified) | > 100 µM | > 100 µM | > 100 µM | > 100 µM | > 100 µM | > 100 µM | > 100 µM | > 100 µM |
| CCN(CC)c1nc(N(C)C)c2cc(OC)ccc2n1 | > 100 µM | > 100 µM | 66.9 µM | > 100 µM | > 100 µM | > 100 µM | 62 µM | > 100 µM |
| CP(C)(=S)P(C)(C)=S | > 100 µM | > 100 µM | > 100 µM |  | > 100 µM | > 100 µM | > 100 µM | > 100 µM |

| Compound | TGI (PC-3 prostate) | TGI (IGROV1 ovarian) | TGI (NCI-H522 lung) | TGI (MDA-MB-435) | TGI (HCT-116 colon) | TGI (NCI/ADR-RES ovarian) | TGI (MALME-3M melanoma) | TGI (NCI-H23 lung) |
| --- | --- | --- | --- | --- | --- | --- | --- | --- |
| CCOC(=O)C1(Cc2ccccc2)Cc2ccccc2C1=O (stereo unspecified) | > 100 µM | > 100 µM |  | 45.3 µM | > 100 µM | 62.8 µM | 52.3 µM | 69.9 µM |
| c1ccc2c(c1)C(=Nc1ccc(N=C3c4ccccc4-c4ccccc43)cc1)c1ccccc1-2 | > 100 µM | > 100 µM | > 100 µM | > 100 µM | > 100 µM | > 100 µM | > 100 µM | > 100 µM |
| CC[C@@]1(O)C(=O)OCc2c1cc1n(c2=O)Cc2c-1nc1ccccc1c2/C=N\NC(=O)C(C)N (stereo partly specified) | > 100 µM | > 100 µM | 25.8 µM | > 100 µM | 23.6 µM | 4.26 µM | > 91.9 µM | 0.847 µM |
| Cc1ccc(C)c(NC(=O)C(Cc2c[nH]c3ccccc23)NC(=O)OCc2ccccc2)c1 (stereo unspecified) | 28.6 µM | 70.8 µM | 69.1 µM | > 100 µM | 98.6 µM | 33 µM | 98.9 µM | 68.4 µM |
| COc1cccc(-n2c(N)c(-c3nc4cc(C(F)(F)F)ccc4s3)c3ccc([N+](=O)[O-])cc3c2=O)c1 | > 100 µM |  | > 100 µM | > 100 µM | > 100 µM | > 100 µM | > 100 µM | > 100 µM |
| N#CC(c1cc(Cl)ncn1)c1nc2ccccc2s1 (stereo unspecified) |  | 22 µM | 4.47 µM | 62 µM | 22.7 µM | 15.2 µM | 24.6 µM | 19.5 µM |
| Cc1cc(-c2nc3cc(F)c(F)cc3s2)ccc1N | > 100 µM |  | > 100 µM | > 100 µM | > 100 µM | > 100 µM | > 100 µM | > 100 µM |
| Cc1n[nH]c(=O)n1N1C(=O)c2ccccc2C1=O | > 100 µM | > 100 µM |  | > 100 µM | > 100 µM | > 100 µM | > 100 µM | > 100 µM |
| O=C1OC(c2ccccc2)N/C1=C\c1ccc2c(c1)OCO2 (stereo unspecified) | > 100 µM | > 100 µM | > 100 µM | > 100 µM | > 100 µM | > 100 µM |  | > 100 µM |
| COc1cc(OC)nc(Nc2c(C#N)c3nc4ccccc4n3c3ccccc23)n1 | > 100 µM | > 100 µM | 64 µM | > 100 µM | > 100 µM | > 100 µM |  | > 100 µM |
| CN(C(=O)c1cccs1)C(=S)N1CCN(c2ccccc2)CC1 |  | > 100 µM | > 100 µM | > 100 µM |  |  | > 100 µM | > 100 µM |
| CCCCOC(=O)C1CN2C(=NC1(C(F)(F)F)C(F)(F)F)Sc1ccccc12 (stereo unspecified) | 42.4 µM | > 100 µM |  |  | > 100 µM | > 100 µM | > 100 µM | > 100 µM |
| CC1(C)OC(=S)N(c2ccccc2)C12C=Cc1cc3ccccc3cc1O2 (stereo unspecified) | > 100 µM | > 100 µM |  | > 100 µM | > 100 µM | > 100 µM |  | > 100 µM |
| C[C@]12CCC(=O)C=C1CC[C@@H]1C2CC[C@]2(C)Nc3c(ncn3-c3ccc(F)cc3)CC12 (stereo partly specified) | > 100 µM | > 100 µM | 55.1 µM | 42.5 µM | 32.8 µM |  | 70.4 µM | > 100 µM |
| O=C(Nc1c(Cl)cc([N+](=O)[O-])cc1Cl)/C(=N\Nc1cccc(Cl)c1)c1c(O)c2ccccc2oc1=O |  | > 100 µM | > 100 µM |  | > 100 µM |  | > 100 µM | > 100 µM |
| C=C(C(=O)O)[C@@H]1C[C@@H]2O[C@H]1CC(C)=CCC/C(C)=C/CC[C@@]2(C)O | > 100 µM | > 100 µM | > 100 µM | > 100 µM | > 100 µM | > 100 µM | > 100 µM |  |
| N=c1oc2c(Cl)cc(Cl)cc2cc1C(=O)Nc1ccccn1 | > 100 µM |  |  | > 100 µM | > 100 µM | > 100 µM | > 100 µM | > 100 µM |
| Cc1nn(C)c2c1C(=O)N(C)CC(=O)N2C | > 100 µM | > 100 µM | > 100 µM | > 100 µM | > 100 µM |  | > 100 µM | > 100 µM |
